Measured values reported in patent US20250195521A1 (Revolution Medicines, Inc., priority 2020, published 2025).
Several values for one entry are separate records, joined by “and”; a condition that tells them apart may be missing. Equal entries are not always repeated. Where two headings read alike, the source gives them in different places.

Columns and labels:
[1] = system: NCI-H358 cells (K-Ras G12C); test: CellTiter-Glo cell viability, NCI-H358; assay type: cell-based, human; settings: Homo sapiens, NCI-H358, 120 h, K-Ras G12C, 5-day treatment; read-out: H358 Cell Viability IC50
How it was run: (§1)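 Compounds dispensed directly onto seeded cells; on day 5 plates equilibrated ~30 min to room temperature and luminescence read. Signal normalized to DMSO average (%) and fitted by four-parameter logistic.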

NCI-H358 (K-Ras G12C) = test: CellTiter-Glo cell viability assay, NCI-H358; assay type: cell-based, human; settings: Homo sapiens, NCI-H358, 120 h, 5-day treatment; read-out: H358 Cell Viability assay data (K-Ras G12C, IC50)
How it was run: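 NCI-H358 (K-Ras G12C) cells treated with compound dispensed directly into plates. CellTiter-Glo luminescence read on day 5 after ~30 min equilibration to room temperature. Signal normalised to DMSO average ×100, then fitted with a four-parameter logistic model.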

[2] = system: K-Ras G12C (NCI-H358 cells); test: Potency assay: pERK in NCI-H358 cells; assay type: cell-based, human; settings: Homo sapiens; NCI-H358 cells, 4 hours; read-out: pERK EC50 (H358 KRAS G12C)
How it was run: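 Cells plated the day before were exposed for 4 h at 37° C, 5% CO2 to a 10-point, 3-fold DMSO dilution series (10 mM top stock), in duplicate. Phospho-ERK was read by AlphaLISA SureFire Ultra or by In-Cell Western with DRAQ5 DNA stain, and IC50 came from a 4-parameter sigmoidal fit.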

KRAS G13C = KRAS G13C (Homo sapiens (Human), UniProt P01116+P62937, G13C); test: Ras-Raf disruption/FRET/MOA assay (BRAF RBD, Cyclophilin A); assay type: biochemical; settings: read-out: KRAS G13C FRET IC50
Sequence of KRAS G13C (P01116 other isoform, or with tags, fused parts or gaps G13C): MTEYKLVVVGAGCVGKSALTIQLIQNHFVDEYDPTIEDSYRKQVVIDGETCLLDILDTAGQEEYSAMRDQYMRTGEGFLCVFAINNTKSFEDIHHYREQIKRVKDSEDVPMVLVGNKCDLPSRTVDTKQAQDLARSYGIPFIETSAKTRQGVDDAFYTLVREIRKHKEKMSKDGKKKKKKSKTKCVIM
Sequence of KRAS G13C (P62937 whole entry): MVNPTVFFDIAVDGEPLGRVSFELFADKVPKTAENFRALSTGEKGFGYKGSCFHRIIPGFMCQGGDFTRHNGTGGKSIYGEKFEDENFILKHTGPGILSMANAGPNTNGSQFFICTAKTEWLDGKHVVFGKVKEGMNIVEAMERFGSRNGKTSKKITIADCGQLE
How it was run: (§2)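 Measured: compound-facilitated Cyclophilin A:Ras complex blocking RAF RBD binding. Conditions: 12.5 nM Ras-GMPPNP, 50 nM BRAF RBD, 25 μM CypA, 3 h plus 1.5 h detection. Output: IC50 from TR-FRET ratio.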

NRAS G12C = NRAS G12C (Homo sapiens (Human), UniProt P01111+P62937, G12C); test: as above; assay type: biochemical; settings: read-out: NRAS G12C FRET data IC50
Sequence of NRAS G12C (P01111 whole entry G12C): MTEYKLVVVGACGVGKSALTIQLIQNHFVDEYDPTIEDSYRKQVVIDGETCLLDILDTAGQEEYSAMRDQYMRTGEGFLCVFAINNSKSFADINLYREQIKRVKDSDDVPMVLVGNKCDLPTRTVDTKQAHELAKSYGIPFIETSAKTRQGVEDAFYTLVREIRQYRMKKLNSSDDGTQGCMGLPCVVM
Sequence of NRAS G12C (P62937 whole entry): as the sequence (P62937 whole entry) above
How it was run: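 25 μM tagless Cyclophilin A, 12.5 nM His6-Ras-GMPPNP and 50 nM GST-BRAF RBD in HEPES pH 7.3 buffer with 5 mM MgCl2, with compound (10-point 3-fold series from 30 μM final) for 3 h at 25 °C. Anti-His Eu and anti-GST APC then added for 1.5 h. IC50 from TR-FRET ratio decrease versus DMSO.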

KRAS G12S = KRAS G12S (Homo sapiens (Human), UniProt P01116+P62937, G12S); test: as above; assay type: biochemical; settings: read-out: KRAS G12S FRET IC50
Sequence of KRAS G12S (P01116 other isoform, or with tags, fused parts or gaps G12S): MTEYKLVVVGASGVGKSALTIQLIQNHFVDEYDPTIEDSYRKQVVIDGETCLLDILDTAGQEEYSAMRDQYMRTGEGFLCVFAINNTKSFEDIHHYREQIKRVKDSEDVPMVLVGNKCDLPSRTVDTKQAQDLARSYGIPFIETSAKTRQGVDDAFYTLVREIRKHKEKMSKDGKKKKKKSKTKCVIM
Sequence of KRAS G12S (P62937 whole entry): as the sequence (P62937 whole entry) above
How it was run: as §2

KRAS WT = KRAS WT (Homo sapiens (Human), UniProt P01116+P62937); test: as above; assay type: biochemical; settings: read-out: KRAS WT FRET data IC50
Sequence of KRAS WT (P01116 other isoform, or with tags, fused parts or gaps): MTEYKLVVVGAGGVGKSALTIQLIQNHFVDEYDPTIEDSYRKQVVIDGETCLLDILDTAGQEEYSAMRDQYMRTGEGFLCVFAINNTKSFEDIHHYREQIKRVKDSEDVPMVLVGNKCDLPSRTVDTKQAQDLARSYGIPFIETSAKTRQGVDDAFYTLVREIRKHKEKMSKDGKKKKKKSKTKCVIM
Sequence of KRAS WT (P62937 whole entry): as the sequence (P62937 whole entry) above
How it was run: as §2

KRAS G12C = KRAS G12C (Homo sapiens (Human), UniProt P01116+P62937, G12C); test: as above; assay type: biochemical; settings: read-out: KRAS G12C FRET IC50
Sequence of KRAS G12C (P01116-2 other isoform, or with tags, fused parts or gaps G12C): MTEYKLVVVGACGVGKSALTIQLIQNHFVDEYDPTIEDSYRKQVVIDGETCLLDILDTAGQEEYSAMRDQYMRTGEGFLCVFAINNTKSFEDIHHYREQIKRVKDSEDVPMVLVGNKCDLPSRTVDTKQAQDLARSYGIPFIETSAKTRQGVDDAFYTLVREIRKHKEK
Sequence of KRAS G12C (P62937 whole entry): as the sequence (P62937 whole entry) above
How it was run: as §2

KRAS G12V = KRAS G12V (Homo sapiens (Human), UniProt P01116+P62937, G12V); test: as above; assay type: biochemical; settings: read-out: KRAS G12V FRET IC50
Sequence of KRAS G12V (P01116 other isoform, or with tags, fused parts or gaps G12V): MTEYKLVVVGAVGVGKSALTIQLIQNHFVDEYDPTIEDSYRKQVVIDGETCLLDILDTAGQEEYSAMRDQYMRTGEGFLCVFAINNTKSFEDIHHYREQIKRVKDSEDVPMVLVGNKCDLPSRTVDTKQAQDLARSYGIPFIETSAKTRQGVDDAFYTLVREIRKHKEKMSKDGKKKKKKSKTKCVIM
Sequence of KRAS G12V (P62937 whole entry): as the sequence (P62937 whole entry) above
How it was run: as §2

KRAS G13D = KRAS G13D (Homo sapiens (Human), UniProt P01116+P62937, G13D); test: as above; assay type: biochemical; settings: read-out: KRAS G13D FRET data IC50
Sequence of KRAS G13D (P01116 other isoform, or with tags, fused parts or gaps G13D): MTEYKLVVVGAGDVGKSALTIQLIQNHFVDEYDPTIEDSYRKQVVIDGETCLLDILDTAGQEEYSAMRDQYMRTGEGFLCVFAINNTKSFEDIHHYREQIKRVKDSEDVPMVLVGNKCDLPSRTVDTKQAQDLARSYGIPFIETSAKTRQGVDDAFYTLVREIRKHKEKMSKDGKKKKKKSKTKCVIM
Sequence of KRAS G13D (P62937 whole entry): as the sequence (P62937 whole entry) above
How it was run: as §2

KRAS G12D = KRAS G12D (Homo sapiens (Human), UniProt P01116+P62937, G12D); test: as above; assay type: biochemical; settings: read-out: KRAS G12D FRET IC50
Sequence of KRAS G12D (P01116 other isoform, or with tags, fused parts or gaps G12D): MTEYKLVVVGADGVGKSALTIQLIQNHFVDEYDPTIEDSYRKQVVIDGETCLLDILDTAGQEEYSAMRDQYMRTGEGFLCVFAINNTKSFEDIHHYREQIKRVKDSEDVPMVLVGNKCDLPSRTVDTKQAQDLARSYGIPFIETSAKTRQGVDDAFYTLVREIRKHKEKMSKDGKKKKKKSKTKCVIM
Sequence of KRAS G12D (P62937 whole entry): as the sequence (P62937 whole entry) above
How it was run: as §2

[3] = system: Capan-1 cells (K-Ras G12V); test: CellTiter-Glo cell viability, Capan-1; assay type: cell-based, human; settings: Homo sapiens, CAPAN-1, 120 h, K-Ras G12V, 5-day treatment; read-out: Capan-1 Cell Viability IC50
How it was run: as §1

[4] = target: K-Ras G12C(GMP-PNP) binding to BRAF RBD (Homo sapiens (Human), UniProt P01116+P62937, G12C); test: Disruption of BRAF RBD interaction with K-Ras (FRET / MOA assay), K-Ras G12C; assay type: biochemical
Sequence of K-Ras G12C(GMP-PNP) binding to BRAF RBD (P01116 other isoform, or with tags, fused parts or gaps G12C): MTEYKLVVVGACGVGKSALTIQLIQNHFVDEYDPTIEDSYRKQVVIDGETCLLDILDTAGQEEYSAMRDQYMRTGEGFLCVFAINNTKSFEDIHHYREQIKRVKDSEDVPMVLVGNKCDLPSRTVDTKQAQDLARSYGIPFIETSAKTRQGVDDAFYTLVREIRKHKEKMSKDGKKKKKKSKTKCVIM
Sequence of K-Ras G12C(GMP-PNP) binding to BRAF RBD (P62937 whole entry): as the sequence (P62937 whole entry) above
Text: Note—The following protocol describes a procedure for monitoring disruption of K-Ras G12C(GMP-PNP) binding to BRAF^RBD by a compound of the invention. This protocol may also be executed substituting other Ras proteins or nucleotides.
The purpose of this biochemical assay was to measure the ability of test compounds to facilitate ternary complex formation between a nucleotide-loaded K-Ras isoform and Cyclophilin A; the resulting ternary complex disrupts binding to a BRAF^RBD construct, inhibiting K-Ras signaling through a RAF effector. Data is reported as IC50 values.
Compound was present in plate wells as a 10-point 3-fold dilution series starting at a final concentration of 30 μM. After incubation at 25° C. for 3 hours, a mixture of Anti-His Eu—W1024 and anti-GST allophycocyanin was then added to assay sample wells at final concentrations of 10 nM and 50 nM, respectively, and the reaction incubated for an additional 1.5 hours. […] Compounds that facilitate disruption of a K-Ras: RAF complex were identified as those eliciting a decrease in the TR-FRET ratio relative to DMSO control wells.

IC50 [1] | IC50 (NCI-H358 (K-Ras G12C)) | EC50 [2] | IC50 (KRAS G13C) | IC50 (NRAS G12C) | IC50 (KRAS G12S) | IC50 (KRAS WT) | IC50 (KRAS G12C) | IC50 (KRAS G12V) | IC50 (KRAS G13D) | IC50 (KRAS G12D) | IC50 ([4]; read-out: KRAS G12C FRET IC50) | IC50 ([4]; KRAS G12C FRET IC50) | Compound | IC50 [3]
 |  |  |  |  |  |  |  |  |  |  | 1000 to 10000 nM |  | CCn1c(-c2cccnc2[C@H](C)OC)c2c3cc(ccc31)-c1cc(O)cc(c1)C[C@H](NC(=O)[C@H](C(C)C)N(C)C(=O)[C@H]1CCN(C)C1)C(=O)N1CCC[C@H](N1)C(=O)OCC(C)(C)C2 [Compound A100] | 
 |  |  |  |  |  |  |  |  |  |  | 1000 to 10000 nM |  | CCn1c(-c2cccnc2[C@H](C)OC)c2c3cc(ccc31)-c1csc(n1)C[C@H](NC(=O)[C@H](C(C)C)N(C)C(=O)[C@H]1CCN(C(=O)CN)C1)C(=O)N1CCC[C@H](N1)C(=O)OCC(C)(C)C2 [Compound A106] | 
 |  | < 5000 nM |  |  |  |  |  |  |  |  | 100 to 1000 nM and < 10 nM |  | CCn1c(-c2cccnc2[C@H](C)OC)c2c3cc(ccc31)-c1cccc(c1)C[C@H](NC(=O)[C@H](C(C)C)N(C)C(=O)[C@H]1CCN(C(=O)C(C)(C)N(C)C)C1)C(=O)N1CCC[C@H](N1)C(=O)OCC(C)(C)C2 [Compound A112] | 
 |  | < 5000 nM |  |  |  |  |  |  |  |  |  | 10 to 100 nM | CCn1c(-c2cccnc2[C@H](C)OC)c2c3cc(ccc31)-c1cc(O)cc(c1)C[C@H](NC(=O)[C@H](C(C)C)N(C)C(=O)C1CCN3CCOCC13)C(=O)N1CCC[C@H](N1)C(=O)OCC(C)(C)C2 (stereo partly drawn) [Compound A123] | 
 |  |  |  |  |  |  |  |  |  |  | 1000 to 10000 nM |  | CCn1c(-c2cccnc2[C@H](C)OC)c2c3cc(ccc31)-c1csc(n1)C[C@H](NC(=O)[C@H](C(C)C)N(C)C(=O)N(C)C)C(=O)N1CCC[C@H](N1)C(=O)OCC(C)(C)C2 [Compound A136] | 
 |  |  |  |  |  |  |  |  |  |  | 10 to 100 nM and < 10 nM |  | CCn1c(-c2cccnc2[C@H](C)OC)c2c3cc(ccc31)-c1cc(O)cc(c1)C[C@H](NC(=O)[C@H](C(C)C)N(C)C(=O)O[C@H]1CCOC1)C(=O)N1CCC[C@H](N1)C(=O)OCC(C)(C)C2 [Compound A209] | 

The next lines start with the molecule.

Compound | IC50 [1] | IC50 (NCI-H358 (K-Ras G12C)) | EC50 [2] | IC50 (KRAS G13C) | IC50 (NRAS G12C) | IC50 (KRAS G12S) | IC50 (KRAS WT) | IC50 (KRAS G12C) | IC50 (KRAS G12V) | IC50 (KRAS G13D) | IC50 (KRAS G12D) | IC50 ([4]; read-out: KRAS G12C FRET IC50) | IC50 ([4]; KRAS G12C FRET IC50) | IC50 [3]
CCn1c(-c2cnccc2COC)c2c3cc(ccc31)-c1cc(O)cc(c1)C[C@H](NC(=O)[C@H](C(C)C)N(C)C(=O)[C@H]1CCN(C3CCOCC3)C1)C(=O)N1CCC[C@H](N1)C(=O)OCC(C)(C)C2 [Compound A45] | 1000 to 10000 nM | 10 to 100 nM | < 5000 nM | 100 to 1000 nM | 1000 to 10000 nM | 100 to 1000 nM | 100 to 1000 nM | 100 to 1000 nM | > 10000 nM | 10 to 100 nM | 100 to 1000 nM |  |  | 
CCn1c(-c2cnccc2COC)c2c3cc(ccc31)-c1cc(O)cc(c1)C[C@H](NC(=O)[C@H](C(C)C)N(C)C(=O)[C@H]1CCN(C[C@H](C)O)C1)C(=O)N1CCC[C@H](N1)C(=O)OCC(C)(C)C2 [Compound A47] | > 10000 nM | 10 to 100 nM | < 5000 nM | 100 to 1000 nM | 100 to 1000 nM | 100 to 1000 nM | 100 to 1000 nM | 100 to 1000 nM | > 10000 nM | 100 to 1000 nM | 1000 to 10000 nM |  |  | 
CCn1c(-c2cnccc2COC)c2c3cc(ccc31)-c1cc(O)cc(c1)C[C@H](NC(=O)[C@@H](NC(C)=O)C(C)C)C(=O)N1CCC[C@H](N1)C(=O)OCC(C)(C)C2 [Compound A58] | 1000 to 10000 nM | 10 to 100 nM | < 5000 nM | 1000 to 10000 nM | 1000 to 10000 nM | 1000 to 10000 nM | 1000 to 10000 nM | 1000 to 10000 nM | 1000 to 10000 nM | 1000 to 10000 nM | > 10000 nM |  |  | 
CCn1c(-c2cnccc2COC)c2c3cc(ccc31)-c1cc(O)cc(c1)C[C@H](NC(=O)[C@H](C(C)C)N(C)C(=O)c1ncc[nH]1)C(=O)N1CCC[C@H](N1)C(=O)OCC(C)(C)C2 [Compound A64] | 100 to 1000 nM | 10 to 100 nM | < 5000 nM | 1000 to 10000 nM | 100 to 1000 nM | 100 to 1000 nM | 100 to 1000 nM | 100 to 1000 nM | 100 to 1000 nM | 100 to 1000 nM | 1000 to 10000 nM |  |  | 
CCn1c(-c2cnccc2COC)c2c3cc(ccc31)-c1cc(O)cc(c1)C[C@H](NC(=O)[C@H](C(C)C)N(C)C(=O)[C@@H](C)O)C(=O)N1CCC[C@H](N1)C(=O)OCC(C)(C)C2 [Compound A92] | 1000 to 10000 nM | 100 to 1000 nM |  | 100 to 1000 nM | 1000 to 10000 nM | 1000 to 10000 nM | 1000 to 10000 nM | 1000 to 10000 nM | 1000 to 10000 nM | 1000 to 10000 nM | 1000 to 10000 nM |  |  | > 10000 nM
